This note sets out measurements from patent US20100204237A1, “Hydroxypyrimidinone derivatives having inhibitory activity against HIV integrase” (priority 2003, published 2010).

A word on the melting point: it is the temperature, or range, at which the solid turns liquid.

One series relates to HIV (HTLV-IIIB strain). The experiment in a line: inhibitory activities against HIV cell proliferation, MT-4 cells, MTT (Experimental Example 2). The series is classed as cell-based. As to conditions: Human immunodeficiency virus 1, IIIB, MT4, 96 h, concentration at which 50% of cytopathy caused by viruses was inhibited, 4 days, read-out: Experimental example 2 (EC50, ng/ml). On the procedure: The inhibitory activities against HIV cell proliferation were determined by the assay method described below. • (1) HIV (HTLV-IIIB strain) persistence infection human T-cell strain Molt-4 clone 8 was cultured on RPMI-1640 medium supplemented with 10% fetal bovine serum, and the supernatant was measured for viral titer after filtration, and stored at −80° C. On the other hand, each anti-HIV active agent was diluted in the above culture medium to a predetermined concentration, and each well of a 96-well microplate was added with 50 μl of the resultant active agent solution. Then, 100 μl (3.5×10^4 cells) each of MT-4 cell suspension was poured into each well, followed by each 50 μl (60 pfu (plaque forming unit)) of the HIV-containing supernatant diluted with the above culture medium. • (2) After incubating for 4 days in a carbon dioxide incubator at 37° C., every well was added with 30 μl of 3-(4,5-dimethylthiazole-2-yl)-2,5-diphenyltetrazolium bromide (MTT) 5 mg/ml), PBS, and incubated for another 1 hour. At this time, since living cells reduce MTT to cause precipitation of formazane, 150 μl of cell supernatant was removed from each well, and instead 150 μl of lysis solution (isopropanol supplemented with 10% Triton X-100 and 0.4% (v/v) HCl) was added, to make formazane eluate by shaking with a plate mixer. […] The concentration of Compound at which 50% of cytopathy caused by viruses was inhibited was defined as EC50.

A further series deals with HIV integrase (Human immunodeficiency virus type 1 group M subtype B, UniProt P04585). The experiment in a line: inhibitory activities against integrase (Experimental Example 1). The series is classed as biochemical. Conditions: integrase inhibition, OD405 nm plate assay; read-out: Experimental example 1 (IC50, ng/ml) (converted). On the procedure:
The inhibitory activities against integrase were determined by the assay described below.
A substrate DNA, solution (2 pmol/μl) and a target DNA solution (5 pmol/μl) were prepared in the manner as described in Experimental example 1 of WO 2004/024693. Before using the DNA solutions, complementary chains were annealed by slowly cooling after boiling. Substrate DNA and target DNA had sequences as described in that Experimental example.
Streptavidin, obtained from Vector Laboratories, was dissolved in 0.1 M carbonate buffer (composition: 90 mM Na2CO3, 10 mM NaHCO3) at concentration of 40 μg/ml. After coating each well of immunoplates (obtained from NUNC) with 50 μl of the above solution at 4° C. over night, each well was washed twice with PBS (composition: 13.7 mM NaCl, 0.27 mM KCl, 0.43 mM Na2HPO4, 0.14 mM KH2PO4) and blocked with 300 μl of 1% skim milk in PBS for 30 min. Additionally, each well was washed twice with PBS and added 50 μl of substrate DNA solution (2 pmol/μl). The immunoplates were kept at room temperature for 30 min while shaking. Then, each well was washed twice with PBS and once with H2O.
Subsequently, in the each well prepared above were added 51 μl of the reaction solution prepared from 12 μl of the buffer (composition: 150 mM MOPS (pH 7.2), 75 mM MnCl2, 50 mM 2-mercaptoethanol, 25% glycerol, 500 μg/ml bovine serum albumin-fraction V), and 39 μl of the distilled water. Then 9 μl of an integrase solution (30 pmol) was added and mixed well. In the well of negative control (NC) was added 9 μl of the integrase dilution buffer (composition: 20 mM MOPS (pH7.2), 400 mM potassium glutamate, 1 mM EDTA, 0.1% NP-40, 20% glycerol, 1 mM DTT, 4M urea), and mixed well using a plate mixer.
The plates were incubated at 30° C. for 60 minutes. The reaction solution was removed and washed three times with 250 μl of washing buffer (composition: 150 mM MOPS (pH7.2), 50 mM 2-mercaptoethanol, 25% glycerol, 500 μg/ml bovine serum albumin-fraction V).
Then each well was added with 53 μl of reaction solution prepared from 12 μl of buffer (composition: 150 mM MOPS (pH7.2), 75 mM MgCl2, 50 mM 2-mercaptoethanol, 25% glycerol, 500 μg/ml bovine serum albumin-fraction V) and 41 μl of distilled water. Further, each well was added with 6 μl of DMSO solution of a compound to be tested, and the well of positive control (PC) was added with 6 μl of DMSO, and mixed well by a plate mixer. After incubating the plate for 30 minutes at 30° C., was added 1 μl of target DNA (5 pmol/μl), and mixed well by a plate mixer.
After incubation for 10 minutes at 30° C., each plate was washed twice with PBS after removal of the reaction solution. […] The optical density at 405 nm (OD405 nm) of each well was measured and the inhibition rate (IC50) was determined by the following expression. […]

Each structure is given as a SMILES string. In brackets after ≈: the same amount, converted by molar mass.

Take `Cc1nc(-c2nnc(Cc3ccc(F)cc3)o2)c(O)c(=O)[nH]1` [Comparative example 1, reference compound]: in the series on HIV (HTLV-IIIB strain), the EC50 amounted to 19000 ng/mL (≈ 62.9 µM). On HIV integrase, the IC50 was 92.6 nM.

`CC(=O)N1CCC[C@H]1c1nc(-c2nnc(Cc3ccc(F)cc3)o2)c(O)c(=O)n1C` [Compound I-2] showed a melting point of 170 to 172 °C. The EC50 in the series with HIV (HTLV-IIIB strain) came out at 38 ng/mL (≈ 0.0919 µM). Further, the IC50 on HIV integrase was 138 nM.

Turning to `CN(C(=O)c1ccccn1)C(C)(C)c1nc(-c2ncc(Cc3ccc(F)cc3)s2)c(O)c(=O)[nH]1` [Compound I-45], the melting point came out at 245 °C. Moreover, the EC50 in the series on HIV (HTLV-IIIB strain) was determined as 5.6 ng/mL (≈ 0.0117 µM). Further, the IC50 at HIV integrase is 12.1 nM.

Regarding `CCN1C(C)n2c(nc(-c3ncc(Cc4ccc(F)cc4)s3)c(O)c2=O)C1(C)C` (centres unmarked) [Compound I-60], the melting point is 165 to 168 °C. For the same molecule, the EC50 with HIV (HTLV-IIIB strain) is 18 ng/mL (≈ 0.0434 µM). Besides, the IC50 on HIV integrase is 15.9 nM.
